From patent US20030147850A1 (priority 2002, published 2003) come the findings set out here.

In assay [1] the test system is vesicular stomatitis virus (VSV).
For assay [2], the system named is erythroleukemia tumor cells. The arrangement: species or system C57BL male mice. As to conditions: mouse, in vivo.
The subject of a further assay is P388 tumor cells. Set-up: species or system DBA/BALB(F1) male mice. The conditions noted are these: mouse, in vivo, ip, 5 mg/kg.

As to Disodium succinate hexahydrate, the “protection of cells against virus-induced cytopathology” value in assay [1] is “no effect”.

In the case of “Recombinant human interferon-alpha2b [IFN]”, the Tumor mass was 354 ± 16 mg in assay [2] and 4800 ± 500 mg in the assay on P388 tumor cells.
